Several values for one entry are separate records, joined by “and”; a condition that tells them apart may be missing. Equal entries are not always repeated. Where two headings read alike, the source gives them in different places.
Experiments:
NdmA-His6 = target: T1, NdmA-His6 (Pseudomonas putida, UniProt H9N289); assay: Kinetic parameters of NdmA-His6 with His6-NdmD; assay type: biochemical, Pseudomonas putida CBB5; conditions: for kcat / Km: NdmA-His6 plus His6-NdmD, pH 7.5, 30° C.
T1 sequence (H9N289 1-351): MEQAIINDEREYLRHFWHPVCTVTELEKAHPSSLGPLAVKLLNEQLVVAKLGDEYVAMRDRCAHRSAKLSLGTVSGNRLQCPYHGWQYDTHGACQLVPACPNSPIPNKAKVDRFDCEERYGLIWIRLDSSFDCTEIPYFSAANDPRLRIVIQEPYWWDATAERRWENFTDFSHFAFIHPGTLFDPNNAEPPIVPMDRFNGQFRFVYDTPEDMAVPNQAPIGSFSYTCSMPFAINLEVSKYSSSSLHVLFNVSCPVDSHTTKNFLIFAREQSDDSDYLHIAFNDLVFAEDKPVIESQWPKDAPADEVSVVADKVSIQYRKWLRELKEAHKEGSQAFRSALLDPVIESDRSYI
Protocol: (§1) Methylxanthine N-demethylase activity assay contained, in 1-ml total volume, 0.5 mM methylxanthine, 1 mM NADH, 50 μM Fe(NH4)2(SO4)2, and an appropriate amount of NdmA-His6 or NdmB-His6 (7.4 μg-2.5 mg protein depending on substrate specificity) in 50 mM KPi buffer (pH 7.5). Approximately 4 U of partially purified reductase, prepared as described previously (Summers et al., 2011) or 59 U of purified His6-NdmD was added to reaction mixture. Catalase from bovine liver (4,000 U) was also added to reactions containing His6-NdmD. The reaction mixture was incubated at 30° C. with 300 rpm shaking on an incubating microplate shaker (VWR, Radnor, Pa.). Periodically, a small aliquot was sampled from the reaction mixture and mixed with equal volume of acetonitrile for quantifying concentrations of methylxanthines and N-demethylated products by HPLC. One unit of N-demethylase activity was defined as the consumption of one […] methylxanthine per minute.
(§2) Apparent kinetic parameters of NdmA-His6 and NdmB-His6 were determined by measuring the initial rate of disappearance (vo) of methylxanthines in 50 mM KPi buffer (pH 7.5) at 30° C. The initial substrate concentrations ([S]) used in these experiments were from 25 to 500 μM. Substrates were incubated with His6-NdmD plus either NdmA-His6 or NdmB-His6 under standard conditions for 15 minutes. At 1, 5, 10, and 15 minutes, samples were removed from the reaction mixtures to quantitate substrate concentrations by HPLC. Plots of substrate concentrations against time were used to determine the initial rates of disappearance of substrates which were linear over 15 minutes. The apparent kinetic parameters were determined from Michaelis-Menten plots of vo against [S] fitted with the equation

NdmB-His6 = NdmB-His6 (Pseudomonas putida, UniProt H9N290); assay: Kinetic parameters of NdmB-His6 with His6-NdmD; assay type: biochemical, Pseudomonas putida CBB5; conditions: for Km / kcat: NdmB-His6 plus His6-NdmD, pH 7.5, 30° C.
Protocol: as §1, §2

[1] = tested on: cell extracts of P. putida CBB5; assay: NADH-dependent N-demethylase activity of CBB5 cell extracts; assay type: biochemical, Pseudomonas putida CBB5; conditions: 0.5 mM substrate, 7.2 mg mL^−1 protein
[2] = target: T2, Caffeine dehydrogenase (Cdh) (Pseudomonas sp., UniProt D7REY3); conditions: cited from earlier work
T2 sequence (D7REY3 1-791): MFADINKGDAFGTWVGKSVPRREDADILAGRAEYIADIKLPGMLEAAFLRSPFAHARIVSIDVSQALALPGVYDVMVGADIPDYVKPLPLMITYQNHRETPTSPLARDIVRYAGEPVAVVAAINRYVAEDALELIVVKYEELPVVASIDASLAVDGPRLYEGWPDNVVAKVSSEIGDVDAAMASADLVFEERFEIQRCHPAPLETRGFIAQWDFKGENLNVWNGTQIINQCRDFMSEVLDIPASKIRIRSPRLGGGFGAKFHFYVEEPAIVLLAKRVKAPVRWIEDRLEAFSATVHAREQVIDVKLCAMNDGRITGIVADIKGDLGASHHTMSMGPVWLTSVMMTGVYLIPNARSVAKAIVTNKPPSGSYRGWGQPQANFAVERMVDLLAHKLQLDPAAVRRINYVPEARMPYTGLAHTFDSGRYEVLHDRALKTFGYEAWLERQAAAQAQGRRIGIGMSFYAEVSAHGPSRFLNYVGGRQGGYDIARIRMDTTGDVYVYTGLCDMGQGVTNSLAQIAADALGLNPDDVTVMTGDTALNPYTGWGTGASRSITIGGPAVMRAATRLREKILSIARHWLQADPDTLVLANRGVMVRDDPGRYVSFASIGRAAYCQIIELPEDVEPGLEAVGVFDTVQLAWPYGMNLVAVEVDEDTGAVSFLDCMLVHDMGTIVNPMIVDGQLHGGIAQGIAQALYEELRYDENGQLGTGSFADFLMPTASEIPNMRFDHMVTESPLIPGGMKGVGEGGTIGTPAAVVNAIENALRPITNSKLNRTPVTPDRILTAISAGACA
T2 sequence (D7REY4 1-295 partner): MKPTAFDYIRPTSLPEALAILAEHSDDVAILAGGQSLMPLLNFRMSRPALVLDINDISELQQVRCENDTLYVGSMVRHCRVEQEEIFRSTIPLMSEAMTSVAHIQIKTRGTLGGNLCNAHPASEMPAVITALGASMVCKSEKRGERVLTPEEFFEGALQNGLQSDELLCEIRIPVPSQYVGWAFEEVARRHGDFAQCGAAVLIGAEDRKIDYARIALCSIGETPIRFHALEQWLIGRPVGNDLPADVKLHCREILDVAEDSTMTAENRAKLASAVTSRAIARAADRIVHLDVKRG
T2 sequence (D7REY5 1-167 partner): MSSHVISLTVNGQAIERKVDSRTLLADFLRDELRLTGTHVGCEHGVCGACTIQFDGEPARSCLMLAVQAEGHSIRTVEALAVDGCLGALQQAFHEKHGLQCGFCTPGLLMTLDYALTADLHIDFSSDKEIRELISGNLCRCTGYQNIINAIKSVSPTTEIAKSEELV

NdmC = assay: N-demethylation by NdmC fraction co-purified with reductase; assay type: biochemical, Pseudomonas putida CBB5
Excerpt: This activity was neither associated with NdmA nor with NdmB. […] Cloning of NdmC has proven difficult; nevertheless based on the fact that purified His6-NdmD had no activity on 7-methylxanthine, we annotate orf 8 as aanother RO with highly specific N-7 demthylase activity.

[3] = tested on: Ndm (methylxanthine N-demethylase) with Ccr reductase
[4] = target: Ndm (methylxanthine N-demethylase) with Ccr reductase (Pseudomonas putida, UniProt H9N289+H9N290); conditions: for O-demethylation by Ndm: prolonged incubation
[5] = target: T3, Ndm, two-subunit N-demethylase component purified from Pseudomonas putida CBB5, H9N289
T3 chain 1: T1 sequence (H9N289 1-351)
T3 chain 2: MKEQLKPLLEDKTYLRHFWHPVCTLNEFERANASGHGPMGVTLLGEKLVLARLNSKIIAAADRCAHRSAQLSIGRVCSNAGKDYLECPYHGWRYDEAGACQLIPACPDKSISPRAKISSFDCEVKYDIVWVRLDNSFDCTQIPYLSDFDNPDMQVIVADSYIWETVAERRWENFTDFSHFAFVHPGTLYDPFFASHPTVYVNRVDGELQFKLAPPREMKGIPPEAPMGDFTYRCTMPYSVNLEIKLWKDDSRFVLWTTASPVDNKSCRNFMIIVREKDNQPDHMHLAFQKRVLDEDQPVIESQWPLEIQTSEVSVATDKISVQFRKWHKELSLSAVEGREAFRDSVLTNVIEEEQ

With Cn1c(=O)[nH]c2nc[nH]c2c1=O [1-methylxanthine] as the molecule, how does the kcat (NdmA-His6) read?
The kcat was 0.26 s⁻¹.

And the Km (NdmA-His6; read-out: Km)?
The Km was 267 µM.

And the “N-demethylation activity of NdmB” value (NdmB-His6)?
The value was “no activity”.

What about the Km (NdmB-His6) of the same molecule?
Its Km is “∞”.

Which results are given for Cn1c(=O)c2[nH]cnc2n(C)c1=O [Theophylline, 1,3-dimethylxanthine]?
degradation rate compared with paraxanthine [1]: significantly slower; activity of Cdh [2]: no activity; activity of Cdh in substrate specificity study [2]: 5%; kcat (NdmB-His6): 0.0045 s⁻¹; Km (NdmB-His6; read-out: Km): 169 µM

Which “degradation rate compared with paraxanthine” value [1] does the source give for Cn1c(=O)c2c(ncn2C)n(C)c1=O [Caffeine, 1,3,7-trimethylxanthine] here?
The value was “significantly slower”.

What about the Km ([2]; Yu et al., 2008) of the same molecule?
Its Km is 3.7 ± 0.9 µM.

And the “N-demethylation by NdmC/reductase fraction” value (NdmC)?
Its value is “not N-demethylated”.

And the kcat (NdmA-His6)?
Its kcat is 3.205 s⁻¹.

What about the Km (NdmA-His6; read-out: Km) of the same molecule?
The Km was 37.6 µM.

And the kcat (NdmB-His6)?
The kcat was 0.00383 s⁻¹.

And the Km (NdmB-His6; read-out: Km)?
The Km was 41.7 µM.

With Cn1cnc2c1c(=O)[nH]c(=O)n2C [Theobromine, 3,7-dimethylxanthine] as the molecule, how does the “degradation rate compared with paraxanthine” value [1] read?
The value was “significantly slower”.

What about the “Preference as a substrate, times less than caffeine” value [2] of the same molecule?
Its value is 50 times.

And the “N-demethylation by NdmC/reductase fraction” value (NdmC)?
Its value is “not N-demethylated”.

And the “N-demethylation activity of NdmA” value (NdmA-His6)?
The value was “inactive”.

And the Km (NdmA-His6)?
Its Km is “∞”.

And the kcat (NdmB-His6)?
Its kcat is 0.772 s⁻¹.

And the Km (NdmB-His6; read-out: Km)?
Its Km is 25.3 µM.

Which “product formed from paraxanthine” value ([3]; 90 minutes, 7.4 mU (7.4 units) of Ndm) does the source give for O=c1[nH]c(=O)c2[nH]cnc2[nH]1 [xanthine] here?
Its value is 193.7 ± 4.0 µM and 193.7 ± 14.0 µM.

And the N-demethylation product present ([3]; from paraxanthine, after 13 minutes)?
The N-demethylation product present was about 20.3 µM.

And the “activity of Cdh” value [2]?
Its value is “no activity”.

And the “activity of Cdh in substrate specificity study” value [2]?
Its value is “none”.

With Cn1c(=O)[nH]c2ncn(C)c2c1=O [Paraxanthine, 1,7-dimethylxanthine] as the molecule, how does the “paraxanthine N-demethylated” value ([4]; after 13 minutes, 100 μM paraxanthine, 0.2 mg Ndm, 4 U Ccr) read?
Its value is 60.2 µM.

What about the Km ([3]; read-out: apparent KM, saturating Ccr, 50 μM Fe2+, 30° C., 50 mM KPi pH 7.5) of the same molecule?
The Km was 50.4 ± 6.8 µM.

What about the apparent kcat ([3]; saturating Ccr, 50 μM Fe2+, 30° C., 50 mM KPi pH 7.5) of the same molecule?
The apparent kcat was 0.27 ± 0.01 s⁻¹.

What about the “time to complete utilization” value ([1]; 0.5 mM NADH) of the same molecule?
Its value is “about 20 minutes”.

What about the “N-demethylation by NdmC/reductase fraction” value (NdmC) of the same molecule?
Its value is “not N-demethylated”.

And the kcat (NdmA-His6)?
Its kcat is 2.215 s⁻¹.

What about the Km (NdmA-His6; read-out: Km) of the same molecule?
Its Km is 52.9 µM.

And the “N-demethylation activity of NdmB” value (NdmB-His6)?
The value was “no activity”.

And the Km (NdmB-His6)?
Its Km is “∞”.

With COc1cc(C=O)ccc1O [vanillin] as the molecule, how does the “O-demethylation by Ndm” value [4] read?
The value was “did not catalyze O-demethylation”.

With COc1cc(C(=O)O)ccc1O [vanillate] as the molecule, how does the “O-demethylation by Ndm” value [4] read?
The value was “did not catalyze O-demethylation”.

With Cn1c(=O)[nH]c(=O)c2[nH]cnc21 [3-Methylxanthine, 3-methylxanthine] as the molecule, how does the “N-demethylation activity of NdmA” value (NdmA-His6) read?
The value was “inactive”.

And the Km (NdmA-His6)?
The Km was “∞”.

And the kcat (NdmB-His6)?
The kcat was 0.528 s⁻¹.

What about the Km (NdmB-His6; read-out: Km) of the same molecule?
The Km was 22.4 µM.

B1: Spinach ferredoxin reductase (protein)
chain: QIASDVEAPPPAPAKVEKHSKKMEEGITVNKFKPKTPYVGRCLLNTKITGDDAPGETWHMVFSHEGEIPYREGQSVGVIPDGEDKNGKPHKLRLYSIASSALGDFGDAKSVSLCVKRLIYTNDAGETIKGVCSNFLCDLKPGAEVKLTGPVGKEMLMPKDPNATIIMLGTGTGIAPFRSFLWKMFFEKHDDYKFNGLAWLFLGVPTSSSLLYKEEFEKMKEKAPDNFRLDFAVSREQTNEKGEKMYIQTRMAQYAVELWEMLKKDNTYFYMCGLKGMEKGIDDIMVSLAAAEGIDWIEYKRQLKKAEQWNVEVY
With B1 as the molecule, how does the N-demethylase activity [5] read?
Its N-demethylase activity is “Ndm did not couple with ferredoxin reductase plus ferredoxin from spinach”.

B2: Reductase component of Pseudomonas sp. 9816 naphthalene dioxygenase (protein)
chain: MELLIQPNNRIIPFSAGANLLEVLRENGVAISYSCLSGRCGTCRCRVIDGSVIDSGAENGQSNLTDKQYVLACQSVLTGNCAIEVPEADEIVTHPARIIKGTVVAVESPTHDIRRLRVRLSKPFEFSPGQYATLQFSPEHARPYSMAGLPDDQEMEFHIRKVPGGRVTEYVFEHVREGTSIKLSGPLGTAYLRQKHTGPMLCVGGGTGLAPVLSIVRGALKSGMTNPILLYFGVRSQQDLYDAERLHKLAADHPQLTVHTVIATGPINEGQRAGLITDVIEKDILSLAGWRAYLCGAPAMVEALCTVTKHLGISPEHIYADAFYPGGI
For B2, which N-demethylase activity [5] is on record?
Its N-demethylase activity is “Ndm did not function in the presence of the reductase and ferredoxin components of Pseudomonas sp. 9816 naphthalene dioxygenase”.
